Experiment [1] has as its system wildtype Wnt signaling cascade. In words: HEK293 TOP assay (Super TopFlash luciferase reporter, Wnt-3a stimulated). It counts as cell-based. Particulars: Homo sapiens, HEK293, 16 h, HEK293 TOP reporter cells, Wnt3a at EC50, 16 hours. In short, it runs like this:
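HEK293 cells stably carrying Super TopFlash (TOP) run in parallel with FOP cells, 10000/well plated 24 h ahead, stimulated with recombinant human Wnt-3a. Compounds tested 50 μM to 15 nM in 3.16-fold steps in CAFTY buffer pH 7.4 with 2 mM Ca^2+ and 0.01% BSA; luciferase read-out.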

In experiment [2] the target is T1, TNKS2 (Homo sapiens, UniProt Q9H2K2).
T1 construct: purchased BPS Bioscience, San Diego, USA 80572 (TNKS2 Histone Ribosylation Assay Kit)
T1 sequence (Q9H2K2 1-1166): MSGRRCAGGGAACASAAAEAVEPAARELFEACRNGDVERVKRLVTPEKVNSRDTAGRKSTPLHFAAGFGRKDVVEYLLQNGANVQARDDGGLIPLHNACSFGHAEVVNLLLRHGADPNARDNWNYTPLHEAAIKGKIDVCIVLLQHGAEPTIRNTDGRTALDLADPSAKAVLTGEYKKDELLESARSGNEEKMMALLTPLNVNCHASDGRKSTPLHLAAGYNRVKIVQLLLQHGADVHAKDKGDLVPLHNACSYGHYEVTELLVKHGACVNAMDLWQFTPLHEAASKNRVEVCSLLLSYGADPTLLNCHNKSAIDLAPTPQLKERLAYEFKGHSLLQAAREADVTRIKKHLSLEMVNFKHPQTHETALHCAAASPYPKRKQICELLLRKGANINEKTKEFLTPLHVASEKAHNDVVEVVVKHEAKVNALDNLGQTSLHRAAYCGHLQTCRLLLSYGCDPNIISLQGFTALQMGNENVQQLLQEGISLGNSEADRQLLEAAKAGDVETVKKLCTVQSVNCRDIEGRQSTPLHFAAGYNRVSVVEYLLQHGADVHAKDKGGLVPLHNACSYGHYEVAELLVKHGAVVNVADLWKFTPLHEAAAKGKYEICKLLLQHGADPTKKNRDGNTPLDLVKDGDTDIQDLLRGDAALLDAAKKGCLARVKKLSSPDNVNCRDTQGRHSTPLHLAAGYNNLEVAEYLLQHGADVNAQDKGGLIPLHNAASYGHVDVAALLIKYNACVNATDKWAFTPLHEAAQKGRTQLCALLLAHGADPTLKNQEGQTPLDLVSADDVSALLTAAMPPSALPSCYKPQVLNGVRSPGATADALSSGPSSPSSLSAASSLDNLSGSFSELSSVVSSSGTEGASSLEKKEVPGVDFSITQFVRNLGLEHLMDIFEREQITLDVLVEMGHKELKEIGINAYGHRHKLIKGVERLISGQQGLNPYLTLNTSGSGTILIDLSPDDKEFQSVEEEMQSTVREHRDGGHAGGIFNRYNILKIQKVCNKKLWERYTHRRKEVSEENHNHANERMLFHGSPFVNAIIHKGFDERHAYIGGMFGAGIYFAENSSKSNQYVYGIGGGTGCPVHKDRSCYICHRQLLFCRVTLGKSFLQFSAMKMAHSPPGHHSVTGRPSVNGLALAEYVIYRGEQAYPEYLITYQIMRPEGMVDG
In words: TNKS2 Assay B (auto-parsylation, [3H]-NAD+ SPA). Type of experiment: biochemical. The settings on record: 6 nM TNKS2, auto-parsylation, over night at room temperature.

Experiment [3] has as its system HEK293 cells cotransfected with the FOP control vector. Briefly: HEK293 FOP assay (control reporter with non-functional TCF elements). Type of experiment: cell-based. The settings on record: Homo sapiens, 16 hours. In short, it runs like this:
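Stable HEK293 line carrying FOP control reporter (randomized non-functional TCF sites, with pcDNA3), Geneticin-selected, plated 24 h before assay. Stimulated with recombinant human Wnt-3a (2500-5 ng/ml) and compounds 50 μM–15 nM (3.16-fold steps) in CAFTY buffer pH 7.4 with 2 mM Ca2+, 0.01% BSA, run parallel to TOP line.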

Each structure is given as a SMILES string. A value given as a limit tells only on which side of the number the result lay.

For the compound `CNC(=O)c1nc[nH]c1C(=O)N[C@H]1CC[C@H](C(=O)N(C)c2ccc(F)cc2Cl)CC1` [Example 173, N^5-{trans-4-[(2-chloro-4-fluorophenyl)(methyl)carbamoyl]cyclohexyl}-N^4-methyl-1H-imidazole-4,5-dicarboxamide], the IC50 in experiment [1] is 0.19 µM; in experiment [2], 0.18 µM; in experiment [3], at least 50 µM.

`Cc1cc(N(C)C(=O)[C@H]2CC[C@H](NC(=O)c3cnn4cccnc34)CC2)c(Cl)cc1F` [Example 176, N-{trans-4-[(2-chloro-4-fluoro-5-methylphenyl)(methyl)carbamoyl]cyclohexyl}pyrazolo[1,5-a]pyrimidine-3-carboxamide]: the figures for the IC50 in experiment [1], in experiment [2] and in experiment [3] were 0.35 µM, 0.13 µM and 5.3 µM, respectively.

In the case of `O=C(N[C@H]1CC[C@H](C(=O)N(CC2CC2)c2ccc(F)cc2Cl)CC1)c1cnn2cccnc12` [Example 177, N-{trans-4-[(2-chloro-4-fluorophenyl)(cyclopropylmethyl)carbamoyl]cyclohexyl}pyrazolo[1,5-a]pyrimidine-3-carboxamide], the values for the IC50 in experiment [1], in experiment [2] and in experiment [3] were 0.071 µM, 0.0092 µM and 40 µM, respectively.

With `Cc1ccccc1N(C)C(=O)[C@H]1CC[C@H](NC(=O)c2cnn3cccnc23)CC1` [Example 178, N-{trans-4-[methyl(2-methylphenyl)carbamoyl]cyclohexyl}pyrazolo[1,5-a]pyrimidine-3-carboxamide], the figures for the IC50 in experiment [1], in experiment [2] and in experiment [3] were 0.56 µM, 0.23 µM and at least 50 µM, respectively.

As to `C[C@]1(C(=O)Nc2ccc(F)cc2Cl)CC[C@H](NC(=O)c2cnn3cccnc23)CC1` [Example 179, N-{trans-4-[(2-chloro-4-fluorophenyl)carbamoyl]-4-methylcyclohexyl}pyrazolo[1,5-a]pyrimidine-3-carboxamide], the figures for the IC50 in experiment [1], in experiment [2] and in experiment [3] were 0.41 µM, 0.33 µM and at least 50 µM, respectively.

Regarding `C[C@]1(C(=O)Nc2ccc(F)cc2Cl)CC[C@@H](NC(=O)c2cnn3cccnc23)CC1` [Example 180, N-{cis-4-[(2-chloro-4-fluorophenyl)carbamoyl]-4-methylcyclohexyl}pyrazolo[1,5-a]pyrimidine-3-carboxamide], the IC50 in experiment [1] is 7.6 µM; in experiment [2], over 10 µM; in experiment [3], at least 50 µM.

Regarding `CNC(=O)c1[nH]cnc1C(=O)N[C@H]1CC[C@@](C)(C(=O)Nc2ccc(F)cc2Cl)CC1` [Example 181, N^4-{cis-4-[(2-chloro-4-fluorophenyl)carbamoyl]-4-methylcyclohexyl}-N^5-methyl-1H-imidazole-4,5-dicarboxamide], the half-inhibitory concentration (IC50) in experiment [1] was 9.6 µM; in experiment [2] it was over 10 µM; in experiment [3] it was 24 µM.

In the case of `CNC(=O)c1nc[nH]c1C(=O)N[C@H]1CC[C@]2(CCN(c3ccc(F)cc3Cl)C2=O)CC1` [Example 182, N^5-[(cis)-2-(2-chloro-4-fluorophenyl)-1-oxo-2-azaspiro[4.5]dec-8-yl]-N^4-methyl-1H-imidazole-4,5-dicarboxamide], the IC50 is 0.19 µM in experiment [1], 1 µM in experiment [2] and at least 50 µM in experiment [3].

Consider `CC1CN(C(=O)c2nc[nH]c2C(=O)N[C@H]2CC[C@@]3(CCN(c4ccc(F)cc4Cl)C3=O)CC2)CCS(=O)(=O)C1` (stereo partly drawn) [Example 183, N-[(trans)-2-(2-chloro-4-fluorophenyl)-1-oxo-2-azaspiro[4.5]dec-8-yl]-4-[(6-methyl-1,1-dioxido-1,4-thiazepan-4-yl)carbonyl]-1H-imidazole-5-carboxamide], for which the 50% inhibitory concentration (IC50) in experiment [1] was 0.21 µM; in experiment [2], 0.4 µM; in experiment [3], at least 50 µM.

Turning to `CN1CC2(CCN(C(=O)c3nc[nH]c3C(=O)N[C@H]3CC[C@@]4(CCN(c5ccc(F)cc5Cl)C4=O)CC3)C2)C1` [Example 184, N-[(trans)-2-(2-chloro-4-fluorophenyl)-1-oxo-2-azaspiro[4.5]dec-8-yl]-4-[(2-methyl-2,6-diazaspiro[3.4]oct-6-yl)carbonyl]-1H-imidazole-5-carboxamide], the IC50 in experiment [1] is 0.021 µM; in experiment [2] it was 0.0062 µM; in experiment [3] it was at least 50 µM.

On to `CN1CC2(C1)CN(C(=O)c1nc[nH]c1C(=O)N[C@H]1CC[C@@]3(CCN(c4ccc(F)cc4Cl)C3=O)CC1)C2` [Example 185, N-[(trans)-2-(2-chloro-4-fluorophenyl)-1-oxo-2-azaspiro[4.5]dec-8-yl]-4-[(6-methyl-2,6-diazaspiro[3.3]hept-2-yl)carbonyl]-1H-imidazole-5-carboxamide], for which the values for the IC50 in experiment [1], in experiment [2] and in experiment [3] were 0.0061 µM, 0.0017 µM and at least 50 µM, respectively.

Consider `NC(=O)c1nc[nH]c1C(=O)N[C@H]1CC[C@@]2(CCN(c3ccc(F)cc3Cl)C2=O)CC1` [Example 186, N^5-[(trans)-2-(2-chloro-4-fluorophenyl)-1-oxo-2-azaspiro[4.5]dec-8-yl]-1H-imidazole-4,5-dicarboxamide], for which the results for the half-maximal inhibitory concentration (IC50) in experiment [1], in experiment [2] and in experiment [3] were 0.0021 µM, 0.0074 µM and at least 50 µM, respectively.

Take `CN1CC(NC(=O)c2nc[nH]c2C(=O)N[C@H]2CC[C@@]3(CCN(c4ccc(F)cc4Cl)C3=O)CC2)C1` [Example 187, N^5-[(trans)-2-(2-chloro-4-fluorophenyl)-1-oxo-2-azaspiro[4.5]dec-8-yl]-N^4-(1-methylazetidin-3-yl)-1H-imidazole-4,5-dicarboxamide]: the half-maximal inhibitory concentration (IC50) was 0.0059 µM in experiment [1], 0.0043 µM in experiment [2] and at least 50 µM in experiment [3].

For `O=C(N[C@H]1CC[C@@]2(CCN(c3ccc(F)cc3Cl)C2=O)CC1)c1nc[nH]c1C(=O)NCC(F)(F)F` [Example 195, N^4-[(trans)-2-(2-chloro-4-fluorophenyl)-1-oxo-2-azaspiro[4.5]dec-8-yl]-N^5-(2,2,2-trifluoroethyl)-1H-imidazole-4,5-dicarboxamide], the values for the IC50 in experiment [1], in experiment [2] and in experiment [3] were 0.0013 µM, 0.0071 µM and at least 50 µM, respectively.

Take `CNC(=O)c1nc[nH]c1C(=O)N[C@H]1CC[C@@]2(CCN(c3cc(F)c(F)cc3Cl)C2=O)CC1` [Example 196, N^5-[(trans)-2-(2-chloro-4,5-difluorophenyl)-1-oxo-2-azaspiro[4.5]dec-8-yl]-N^4-methyl-1H-imidazole-4,5-dicarboxamide]: the values for the IC50 in experiment [1], in experiment [2] and in experiment [3] were 0.00074 µM, 0.0024 µM and 35 µM, respectively.

`CCNC(=O)c1nc[nH]c1C(=O)N[C@H]1CC[C@@]2(CCN(c3cc(F)c(F)cc3Cl)C2=O)CC1` [Example 197, N^5-[(trans)-2-(2-chloro-4,5-difluorophenyl)-1-oxo-2-azaspiro[4.5]dec-8-yl]-N^4-ethyl-1H-imidazole-4,5-dicarboxamide]: the results for the IC50 in experiment [1], in experiment [2] and in experiment [3] were 0.00074 µM, 0.0021 µM and 19 µM, respectively.

`CC(C)NC(=O)c1nc[nH]c1C(=O)N[C@H]1CC[C@@]2(CCN(c3cc(F)c(F)cc3Cl)C2=O)CC1` [Example 198, N^5-[(trans)-2-(2-chloro-4,5-difluorophenyl)-1-oxo-2-azaspiro[4.5]dec-8-yl]-N^4-(propan-2-yl)-1H-imidazole-4,5-dicarboxamide]: the IC50 was 0.0017 µM in experiment [1], 0.0031 µM in experiment [2] and 19 µM in experiment [3].

With `O=C(NC1CC1)c1nc[nH]c1C(=O)N[C@H]1CC[C@@]2(CCN(c3cc(F)c(F)cc3Cl)C2=O)CC1` [Example 199, N^5-[(trans)-2-(2-chloro-4,5-difluorophenyl)-1-oxo-2-azaspiro[4.5]dec-8-yl]-N^4-cyclopropyl-1H-imidazole-4,5-dicarboxamide], the values for the IC50 in experiment [1], in experiment [2] and in experiment [3] were 0.00098 µM, 0.003 µM and 21 µM, respectively.

The values above are taken from patent US20180148418A1, “AMIDO-SUBSTITUTED CYCLOHEXANE DERIVATIVES” (Bayer Pharma Aktiengesellschaft, priority 2015, published 2018).
